Target: T1, Q46 protein aggregates (Homo sapiens, UniProt P42858, INS38QQQQQQQQQQQQQQQQQQQQQQQQQ)
T1 construct: fused on or other part: GST at the N-terminus, cut off by thrombin before the test to start aggregation
Assay: Q46 Radioligand Binding Assay (RBA)
Settings: displacement of 10 nM [3H3]MK-3328 from 5 μM aggregated Q46 protein, 60 minutes at 37° C.
Protocol: Q46 Radioligand Binding Assay
For radioligand binding assays (RBA) GST-Q46 protein was generated based on a previous publication (Scherzinger et al. Cell, Vol. 90, 549-558, Aug. 8, 1997). For experiments 33 μM GST-Q46 was incubated with 150 μg/mL thrombin in assay buffer (150 mM NaCl, 50 mM Tris pH 8.0) and 2 mM CaCl2 for 16 hours at 37° C. Aggregated Q46 was pelleted by centrifugation for 5 minutes at 13,000 rpm in a bench top centrifuge and re-dissolved in the same volume of assay buffer. Test compounds were prepared by titration in DMSO at 11 concentrations from 33 μM to 1 nM. For the RBA, Q46 protein aggregates and test compounds were pre-incubated in assay buffer for 20 minutes at room temperature, in 140 μL/well in a 96-well plate (pp, round bottom). Then, ligand was added in 10 μL/well and incubated for 60 minutes at 37° C. Final assay concentrations were […] test compound, 5 μM Q46 protein (equivalent monomer concentration) and 10 nM ligand [^3H3]MK-3328 (Harrision et al., ACS Med. Chem. Lett., 2 (2011), pp 498-502). Samples were transferred onto GF/B filter plates and washed 2× with 200 μL PBS using a Filtermate Harvester. After drying filter plates for 1 hour at 37° C., the back of the plates was sealed with foil and 30 μl/well scintillation fluid (Packard MicroScint 40) was added, incubated for […] 15 minutes in the dark and counted in a TopCount reader. For analysis, replicate data from independent assay plates were normalized towards 0% and 100% inhibition using control wells of vehicle (0% inhibition) and 3 μM unlabelled MK-3328 (100% inhibition). IC50 values were determined with a sigmoidal inhibition model with four variables (top, bottom, slope, IC50) in a global fit using the normalized replicate data.

T1 sequence (P42858 with tags, fused parts or gaps with the stated changes): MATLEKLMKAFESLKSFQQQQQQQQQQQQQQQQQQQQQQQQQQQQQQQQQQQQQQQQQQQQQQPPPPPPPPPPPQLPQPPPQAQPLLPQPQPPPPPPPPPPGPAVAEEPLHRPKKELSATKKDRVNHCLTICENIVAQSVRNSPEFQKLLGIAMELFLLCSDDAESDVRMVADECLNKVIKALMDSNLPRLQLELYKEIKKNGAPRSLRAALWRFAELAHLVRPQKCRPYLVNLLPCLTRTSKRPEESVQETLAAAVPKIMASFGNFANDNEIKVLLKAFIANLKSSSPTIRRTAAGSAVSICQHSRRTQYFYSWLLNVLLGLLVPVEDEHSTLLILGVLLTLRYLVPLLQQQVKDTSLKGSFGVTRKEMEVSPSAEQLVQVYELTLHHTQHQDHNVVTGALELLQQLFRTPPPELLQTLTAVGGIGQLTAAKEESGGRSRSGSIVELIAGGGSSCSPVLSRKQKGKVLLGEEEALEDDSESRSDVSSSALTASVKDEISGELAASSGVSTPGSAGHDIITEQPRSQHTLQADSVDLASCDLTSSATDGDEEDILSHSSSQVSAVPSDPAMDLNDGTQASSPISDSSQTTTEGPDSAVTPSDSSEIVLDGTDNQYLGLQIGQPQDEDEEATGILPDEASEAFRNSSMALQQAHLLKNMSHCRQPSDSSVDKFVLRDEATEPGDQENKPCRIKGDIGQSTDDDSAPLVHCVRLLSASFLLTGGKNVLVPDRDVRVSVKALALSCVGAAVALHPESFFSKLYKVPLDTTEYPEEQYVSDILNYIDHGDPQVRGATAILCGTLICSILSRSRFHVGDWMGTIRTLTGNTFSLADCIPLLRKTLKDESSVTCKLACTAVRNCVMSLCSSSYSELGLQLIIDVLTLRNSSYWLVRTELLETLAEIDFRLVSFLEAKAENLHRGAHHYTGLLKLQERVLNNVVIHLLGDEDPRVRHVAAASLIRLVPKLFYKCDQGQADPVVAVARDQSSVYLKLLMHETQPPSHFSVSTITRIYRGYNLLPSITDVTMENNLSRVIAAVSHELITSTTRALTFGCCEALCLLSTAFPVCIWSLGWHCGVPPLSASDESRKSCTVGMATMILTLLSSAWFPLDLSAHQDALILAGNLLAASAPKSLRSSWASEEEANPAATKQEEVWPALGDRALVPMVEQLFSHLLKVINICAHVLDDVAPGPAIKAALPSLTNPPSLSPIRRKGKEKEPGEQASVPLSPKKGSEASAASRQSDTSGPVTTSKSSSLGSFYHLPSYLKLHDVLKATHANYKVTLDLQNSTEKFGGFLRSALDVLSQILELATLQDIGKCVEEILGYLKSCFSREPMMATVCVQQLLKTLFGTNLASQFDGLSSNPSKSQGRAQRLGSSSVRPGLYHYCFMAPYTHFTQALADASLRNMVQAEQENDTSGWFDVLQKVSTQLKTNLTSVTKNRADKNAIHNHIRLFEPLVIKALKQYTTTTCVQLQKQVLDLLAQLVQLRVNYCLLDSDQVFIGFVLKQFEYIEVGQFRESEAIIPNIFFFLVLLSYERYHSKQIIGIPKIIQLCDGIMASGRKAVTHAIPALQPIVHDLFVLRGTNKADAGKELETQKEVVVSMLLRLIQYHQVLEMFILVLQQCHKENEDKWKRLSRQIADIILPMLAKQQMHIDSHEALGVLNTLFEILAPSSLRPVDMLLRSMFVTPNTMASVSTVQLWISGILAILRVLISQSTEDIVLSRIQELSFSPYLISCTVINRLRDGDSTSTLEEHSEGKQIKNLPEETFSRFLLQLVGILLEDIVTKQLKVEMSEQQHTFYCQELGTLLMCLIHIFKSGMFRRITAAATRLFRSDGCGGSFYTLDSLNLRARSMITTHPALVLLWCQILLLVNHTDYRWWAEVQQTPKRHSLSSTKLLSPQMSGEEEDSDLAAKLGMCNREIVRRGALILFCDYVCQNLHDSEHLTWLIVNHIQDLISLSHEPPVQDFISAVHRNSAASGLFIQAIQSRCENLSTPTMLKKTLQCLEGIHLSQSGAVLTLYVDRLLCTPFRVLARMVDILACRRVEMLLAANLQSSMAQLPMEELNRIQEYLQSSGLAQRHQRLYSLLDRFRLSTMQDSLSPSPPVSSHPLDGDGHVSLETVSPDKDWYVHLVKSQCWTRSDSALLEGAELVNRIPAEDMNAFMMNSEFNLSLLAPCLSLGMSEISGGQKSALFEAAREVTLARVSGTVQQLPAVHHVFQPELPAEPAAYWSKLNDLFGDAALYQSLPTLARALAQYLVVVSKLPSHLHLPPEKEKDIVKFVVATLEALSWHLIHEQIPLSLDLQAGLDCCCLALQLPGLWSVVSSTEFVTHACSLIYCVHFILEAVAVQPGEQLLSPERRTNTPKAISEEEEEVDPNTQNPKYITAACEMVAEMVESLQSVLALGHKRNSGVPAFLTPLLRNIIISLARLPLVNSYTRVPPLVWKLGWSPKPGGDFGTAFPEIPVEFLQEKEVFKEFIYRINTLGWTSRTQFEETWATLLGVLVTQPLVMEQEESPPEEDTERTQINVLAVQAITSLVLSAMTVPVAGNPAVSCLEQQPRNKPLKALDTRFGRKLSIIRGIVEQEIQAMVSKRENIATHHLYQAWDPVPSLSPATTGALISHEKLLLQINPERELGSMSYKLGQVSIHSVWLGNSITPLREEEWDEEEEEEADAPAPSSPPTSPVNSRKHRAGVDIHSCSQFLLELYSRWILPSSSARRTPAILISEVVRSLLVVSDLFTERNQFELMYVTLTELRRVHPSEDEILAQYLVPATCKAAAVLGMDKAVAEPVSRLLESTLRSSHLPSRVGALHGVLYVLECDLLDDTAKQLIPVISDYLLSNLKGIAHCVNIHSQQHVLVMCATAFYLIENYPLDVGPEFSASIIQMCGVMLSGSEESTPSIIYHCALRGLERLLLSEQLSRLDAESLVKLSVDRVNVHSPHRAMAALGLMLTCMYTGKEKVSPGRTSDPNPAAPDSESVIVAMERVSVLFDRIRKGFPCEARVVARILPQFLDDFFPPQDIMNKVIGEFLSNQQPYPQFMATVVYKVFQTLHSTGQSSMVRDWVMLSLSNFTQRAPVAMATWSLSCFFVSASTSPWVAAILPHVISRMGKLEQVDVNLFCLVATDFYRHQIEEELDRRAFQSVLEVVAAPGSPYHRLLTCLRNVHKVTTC

IC50	SMILES
100 to 500 nM	CNc1c(-c2cc3c(o2)CCN(C(=O)OC(C)(C)C)C3)nc2cc(C#N)ccn12 [tert-butyl 2-[7-cyano-3-(methylamino)imidazo[1,2-a]pyridin-2-yl]-4H,5H,6H,7H-furo[3,2-c]pyridine-5-carboxylate]
< 100 nM	CNc1c(/C=C/c2ccc(OC)cc2)nc2cc(C#N)ccn12 [2-[(E)-2-(4-methoxyphenyl)ethenyl]-3-(methylamino)imidazo[1,2-a]pyridine-7-carbonitrile]
100 to 500 nM	CNc1c(-c2cc3cc(OC)ccc3o2)nc2ccccn12 [2-(5-methoxy-1-benzofuran-2-yl)-N-methylimidazo[1,2-a]pyridin-3-amine]
< 100 nM	CNc1c(-c2cccc(OCc3cccnc3)c2)nc2cc(C#N)ccn12 [3-(methylamino)-2-[3-(pyridin-3-ylmethoxy)phenyl]imidazo[1,2-a]pyridine-7-carbonitrile]
< 100 nM	N#Cc1ccn2c(N)c(-c3cc4cc(OCCF)ccc4o3)nc2c1 [3-amino-2-[5-(2-fluoroethoxy)-1-benzofuran-2-yl]imidazo[1,2-a]pyridine-7-carbonitrile]
< 100 nM	CNc1c(-c2cc3cc(OC)ccc3o2)nc2cc(Cl)ccn12 [7-chloro-2-(5-methoxy-1-benzofuran-2-yl)-N-methylimidazo[1,2-a]pyridin-3-amine]
100 to 500 nM	COc1ccc2oc(-c3nc4cc(C#N)ccn4c3N(C)C)cc2c1 [3-(dimethylamino)-2-(5-methoxy-1-benzofuran-2-yl)imidazo[1,2-a]pyridine-7-carbonitrile]
< 100 nM	CNc1c(-c2nc3cc(OC)ccc3n2C)nc2cc(C#N)ccn12 [2-(5-methoxy-1-methyl-1H-1,3-benzodiazol-2-yl)-3-(methylamino)imidazo[1,2-a]pyridine-7-carbonitrile]
< 100 nM	CNc1c(-c2ccc(OCc3cccnc3)cc2)nc2cc(C#N)ccn12 [3-(methylamino)-2-[4-(pyridin-3-ylmethoxy)phenyl]imidazo[1,2-a]pyridine-7-carbonitrile]
< 100 nM	CNc1c(-c2cc3cc(OC)ccc3o2)nc2cc(C#C[Si](C)(C)C)ccn12 [2-(5-methoxy-1-benzofuran-2-yl)-N-methyl-7-[2-(trimethylsilyl)ethynyl]imidazo[1,2-a]pyridin-3-amine]
< 100 nM	CNc1c(-c2ccc(C#N)cc2)nc2cc(C#N)ccn12 [2-(4-cyanophenyl)-3-(methylamino)imidazo[1,2-a]pyridine-7-carbonitrile]
< 100 nM	CNc1c(-c2cc3cc(OC)ccc3o2)nc2cc(C#N)ccn12 [2-(5-methoxy-1-benzofuran-2-yl)-3-(methylamino)imidazo[1,2-a]pyridine-7-carbonitrile]
> 500 nM	CNc1c(-c2cc3cc(F)ccc3o2)nc2ccccn12 [2-(5-fluoro-1-benzofuran-2-yl)-N-methylimidazo[1,2-a]pyridin-3-amine]
< 100 nM	CNc1c(-c2cc3cc(OCc4cccnc4)ccc3o2)nc2cc(C#N)ccn12 [3-(methylamino)-2-[5-(pyridin-3-ylmethoxy)-1-benzofuran-2-yl]imidazo[1,2-a]pyridine-7-carbonitrile]
< 100 nM	CNc1c(-c2ccc(-c3cnccn3)cc2)nc2cc(C#N)ccn12 [3-(methylamino)-2-[4-(pyrazin-2-yl)phenyl]imidazo[1,2-a]pyridine-7-carbonitrile]
< 100 nM	CNc1c(-c2cc3cc(OC)ccc3o2)nc2cc(OC)ccn12 [7-methoxy-2-(5-methoxy-1-benzofuran-2-yl)-N-methylimidazo[1,2-a]pyridin-3-amine]
< 100 nM	CNc1c(-c2cc3ccc(OC)cc3o2)nc2cc(C#N)ccn12 [2-(6-methoxy-1-benzofuran-2-yl)-3-(methylamino)imidazo[1,2-a]pyridine-7-carbonitrile]
< 100 nM	CNc1c(-c2cnc(OCc3ccc(OC)cn3)cn2)nc2cc(C#N)ccn12 [2-{5-[(5-methoxypyridin-2-yl)methoxy]pyrazin-2-yl}-3-(methylamino)imidazo[1,2-a]pyridine-7-carbonitrile]
< 100 nM	CNc1c(-c2cc3cc(OC)ccc3o2)nc2cc(F)ccn12 [7-fluoro-2-(5-methoxy-1-benzofuran-2-yl)-N-methylimidazo[1,2-a]pyridin-3-amine]
< 100 nM	CNc1c(-c2ccc(NCc3ccc(OC)cn3)cc2)nc2cc(C#N)ccn12 [2-(4-{[(5-methoxypyridin-2-yl)methyl]amino}phenyl)-3-(methylamino)imidazo[1,2-a]pyridine-7-carbonitrile]

IC50	SMILES
100 to 500 nM	CNc1c(-c2cccc(COCc3cccnc3)c2)nc2cc(C#N)ccn12 [3-(methylamino)-2-{3-[(pyridin-3-ylmethoxy)methyl]phenyl}imidazo[1,2-a]pyridine-7-carbonitrile]
< 100 nM	C#Cc1ccn2c(NC)c(-c3cc4cc(OC)ccc4o3)nc2c1 [7-ethynyl-2-(5-methoxy-1-benzofuran-2-yl)-N-methylimidazo[1,2-a]pyridin-3-amine]
< 100 nM	CNc1c(-c2cn3c(n2)sc2cc(OC)ccc23)nc2cc(C#N)ccn12 [2-{10-methoxy-7-thia-2,5-diazatricyclo[6.4.0.0^2,6]dodeca-1(12),3,5,8,10-pentaen-4-yl}-3-(methylamino)imidazo[1,2-a]pyridine-7-carbonitrile]
< 100 nM	CNc1c(-c2ccc(OCc3cnc(OC)cn3)nc2)nc2cc(C#N)ccn12 [2-{6-[(5-methoxypyrazin-2-yl)methoxy]pyridin-3-yl}-3-(methylamino)imidazo[1,2-a]pyridine-7-carbonitrile]
< 100 nM	COCc1c(-c2cc3cc(OC)ccc3o2)nc2cc(C#N)ccn12 [2-(5-methoxy-1-benzofuran-2-yl)-3-(methoxymethyl)imidazo[1,2-a]pyridine-7-carbonitrile]
< 100 nM	CNc1c(-c2ccc(OCc3cnc(OC)cn3)cc2)nc2cc(C#N)ccn12 [2-{4-[(5-methoxypyrazin-2-yl)methoxy]phenyl}-3-(methylamino)imidazo[1,2-a]pyridine-7-carbonitrile]
< 100 nM	CNc1c(-c2nc3cc(OC)ccc3o2)nc2cc(C#N)ccn12 [2-(5-methoxy-1,3-benzoxazol-2-yl)-3-(methylamino)imidazo[1,2-a]pyridine-7-carbonitrile]
< 100 nM	CNc1c(-c2cc3cc(F)ccc3o2)nc2cc(C#N)ccn12 [2-(5-fluoro-1-benzofuran-2-yl)-3-(methylamino)imidazo[1,2-a]pyridine-7-carbonitrile]
< 100 nM	CNc1c(-c2nc3cc(OC)ccc3[nH]2)nc2cc(C#N)ccn12 [2-(5-methoxy-1H-1,3-benzodiazol-2-yl)-3-(methylamino)imidazo[1,2-a]pyridine-7-carbonitrile]
< 100 nM	CNc1c(-c2ccc(OC)cc2)nc2cc(C#N)ccn12 [2-(4-methoxyphenyl)-3-(methylamino)imidazo[1,2-a]pyridine-7-carbonitrile]
< 100 nM	CNc1c(-c2cc3cc(O)ccc3o2)nc2cc(C#N)ccn12 [2-(5-hydroxy-1-benzofuran-2-yl)-3-(methylamino)imidazo[1,2-a]pyridine-7-carbonitrile]
< 100 nM	CNc1c(-c2cccc(OCc3cnc(OC)cn3)c2)nc2cc(C#N)ccn12 [2-{3-[(5-methoxypyrazin-2-yl)methoxy]phenyl}-3-(methylamino)imidazo[1,2-a]pyridine-7-carbonitrile]
< 100 nM	CNc1c(-c2ccc(OCc3cnc(OC)cn3)cn2)nc2cc(C#N)ccn12 [2-{5-[(5-methoxypyrazin-2-yl)methoxy]pyridin-2-yl}-3-(methylamino)imidazo[1,2-a]pyridine-7-carbonitrile]
< 100 nM	CNc1c(-c2cc3cc(Br)ccc3o2)nc2cc(C#N)ccn12 [2-(5-bromo-1-benzofuran-2-yl)-3-(methylamino)imidazo[1,2-a]pyridine-7-carbonitrile]
100 to 500 nM	CNc1c(-c2ccc3c(c2)OCCO3)nc2cc(C#N)ccn12 [2-(2,3-dihydro-1,4-benzodioxin-6-yl)-3-(methylamino)imidazo[1,2-a]pyridine-7-carbonitrile]
< 100 nM	COc1ccc2oc(-c3nc4cc(C#N)ccn4c3N)cc2c1 [3-amino-2-(5-methoxy-1-benzofuran-2-yl)imidazo[1,2-a]pyridine-7-carbonitrile]
< 100 nM	CNc1c(-c2cc3cc(OC)ccc3o2)nc2cc(Br)ccn12 [7-bromo-2-(5-methoxy-1-benzofuran-2-yl)-N-methylimidazo[1,2-a]pyridin-3-amine]
< 100 nM	COc1ccc2oc(-c3cn4ccc(C#N)cc4n3)cc2c1 [2-(5-methoxy-1-benzofuran-2-yl)imidazo[1,2-a]pyridine-7-carbonitrile]
< 100 nM	CNc1c(-c2ccc(OCC3=CSC4=NCCN34)cc2)nc2cc(C#N)ccn12 [2-(4-{5H,6H-imidazo[2,1-b][1,3]thiazol-3-ylmethoxy}phenyl)-3-(methylamino)imidazo[1,2-a]pyridine-7-carbonitrile]

Reference: patent US11851446B2, “Probes for imaging Huntingtin protein” (CHDI Foundation, Inc., priority 2014, dated 2023)
